Measurements from patent US20230407243A1, “GENETIC PLATFORM TO INVESTIGATE THE FUNCTIONS OF BACTERIAL DRUG EFFLUX PUMPS” (priority 2022, published 2023).
Read-outs that look alike come from different tables or passages of the source.

Key:
Assay type in all cases: cell-based, Escherichia coli
[1] = system: EKO-35 araC::acrBD408A; assay: MIC susceptibility profiling, efflux platform; settings: for Fold change of MICs: EKO-35 araC::acrBD408A compared to EKO-35
How it was run: (§1)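 LB o/n 37 °C → PBS pH 7.4, OD600 ~1.0 → 1/2000 in MHB II; 2-fold cmpd series, duplicate, DMSO ctrl; 18 h 37 °C, 900 rpm; OD600 post minus pre.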

[2] = system: EKO-35 araC::acrEF; assay: MIC susceptibility profiling, efflux platform; settings: for Fold change of MICs: EKO-35 araC::acrEF compared to EKO-35
How it was run: as §1

[3] = system: EKO-35 araC::emrAB; assay: MIC susceptibility profiling, efflux platform; settings: for Fold change of MICs: EKO-35 araC::emrAB compared to EKO-35
How it was run: as §1

[4] = system: EKO-35 araC::emrKY; assay: MIC susceptibility profiling, efflux platform; settings: for Fold change of MICs: EKO-35 araC::emrKY compared to EKO-35
How it was run: as §1

[5] = system: EKO-35 araC::macAB; assay: MIC susceptibility profiling, efflux platform; settings: for Fold change of MICs: EKO-35 araC::macAB compared to EKO-35
How it was run: as §1

[6] = system: EKO-35 araC::mdtEF; assay: MIC susceptibility profiling, efflux platform; settings: for Fold change of MICs: EKO-35 araC::mdtEF compared to EKO-35
How it was run: as §1

[7] = system: wild-type (WT) K-12-Pore; assay: microbe, parasite or virus in culture; settings: technical duplicate; for MIC: Escherichia coli
How it was run: (§2)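 E. coli strains carrying a genomically integrated constitutive fhuA ΔC/Δ4L pore were grown 18 h in LB at 37 °C, then diluted 1/2000 in MHB II from OD600 ~1.0. Compounds were tested in duplicate, 2-fold serial titration, for 18 h at 37 °C with shaking. MIC came from OD600 with the pre-incubation background subtracted.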

[8] = system: ΔtolC-Pore; assay: microbe, parasite or virus in culture; settings: for Minimum inhibitory concentration (MIC), Pore ΔtolC: Table 10, with pore; for Minimum inhibitory concentration (MIC), Pore ΔtolC / Minimum inhibitory concentration, ΔtolC-Pore: technical duplicate; for Minimum inhibitory concentration, ΔtolC-Pore: Table 14A, porinated
How it was run: as §2

[9] = system: EKO-35 araC::acrB Pore; assay: MIC susceptibility profiling, porinated efflux platform; settings: for Fold changes of MICs: EKO-35 araC::acr-B Pore compared to EKO-35-Pore; for Minimum inhibitory concentration, EKO-35 araC::acrB Pore: Table 14A, porinated, technical duplicate
How it was run: as §2

[10] = system: EKO-35 araC::acrBD408A Pore; assay: as above; settings: for Fold changes of MICs: EKO-35 araC::acrBD408A Pore compared to EKO-35-Pore
How it was run: as §2

[11] = system: EKO-35 araC::acrD Pore; assay: as above; settings: for Fold changes of MICs: EKO-35 araC::acrD Pore compared to EKO-35-Pore; for Minimum inhibitory concentration, EKO-35 araC::acrD Pore: Table 14A, porinated, technical duplicate
How it was run: as §2

[12] = system: EKO-35 araC::acrEF Pore; assay: as above; settings: for Fold changes of MICs: EKO-35 araC::acrEF Pore compared to EKO-35-Pore; for Minimum inhibitory concentration, EKO-35 araC::acrEF Pore: Table 14A, porinated, technical duplicate
How it was run: as §2

[13] = system: EKO-35 araC::emrAB Pore; assay: as above; settings: for Fold changes of MICs: EKO-35 araC::emrAB Pore compared to EKO-35-Pore; for Minimum inhibitory concentration: EKO-35 araC::emrAB Pore, technical duplicate
How it was run: as §2

[14] = system: EKO-35 araC::emrKY Pore; assay: as above; settings: for Fold changes of MICs: EKO-35 araC::emrKY Pore compared to EKO-35-Pore; for Minimum inhibitory concentration: EKO-35 araC::emrKY Pore, technical duplicate
How it was run: as §2

[15] = system: EKO-35 araC::macAB Pore; assay: as above; settings: for Fold changes of MICs: EKO-35 araC::macAB Pore compared to EKO-35-Pore
How it was run: as §2

[16] = system: EKO-35 araC::mdtBC Pore; assay: as above; settings: for Fold changes of MICs: EKO-35 araC::mdtBC Pore compared to EKO-35-Pore
How it was run: as §2

[17] = system: EKO-35 araC::mdtEF Pore; assay: as above; settings: for Fold changes of MICs: EKO-35 araC::mdtEF Pore compared to EKO-35-Pore
How it was run: as §2

[18] = system: EKO-35 araC::mexCD Pore; assay: as above; settings: for Fold changes of MICs: EKO-35 araC::mexCD Pore compared to EKO-35-Pore
How it was run: as §2

[19] = Table 13B, non-porinated, technical duplicate
[20] = Table 13A, non-porinated, technical duplicate
[21] = EKO-35 araC::acrBD408A Pore, technical duplicate
[22] = EKO-35 araC::macAB Pore, technical duplicate
[23] = EKO-35 araC::mdtBC Pore, technical duplicate
[24] = Table 14A, porinated, technical duplicate
[25] = EKO-35 araC::mexCD Pore, technical duplicate

Structure (SMILES) | Fold change of MICs [1] [fold] | Fold change of MICs [2] [fold] | Fold change of MICs [3] [fold] | Fold change of MICs [4] [fold] | Fold change of MICs [5] [fold] | Fold change of MICs [6] [fold] | Minimum inhibitory concentration (MIC), Pore ΔtolC [8] [µg/mL] | Fold changes of MICs [9] [fold] | Fold changes of MICs [10] [fold] | Fold changes of MICs [11] [fold] | Fold changes of MICs [12] [fold] | Fold changes of MICs [13] [fold] | Fold changes of MICs [14] [fold] | Fold changes of MICs [15] [fold] | Fold changes of MICs [16] [fold] | Fold changes of MICs [17] [fold] | Fold changes of MICs [18] [fold] | Minimum Inhibitory Concentration, EKO-35 araC::acrBD408A [1, 19] [µg/mL] | Minimum Inhibitory Concentration, EKO-35 araC::acrEF [2, 20] [µg/mL] | Minimum Inhibitory Concentration, EKO-35 araC::emrAB [3, 19] [µg/mL] | further results
CN[C@H](CC(C)C)C(=O)N[C@H]1C(=O)N[C@@H](CC(N)=O)C(=O)N[C@H]2C(=O)N[C@H]3C(=O)N[C@H](C(=O)N[C@H](C(=O)O)c4cc(O)cc(O)c4-c4cc3ccc4O)[C@H](O)c3ccc(c(Cl)c3)Oc3cc2cc(c3O[C@@H]2O[C@H](CO)[C@@H](O)[C@H](O)[C@H]2O[C@H]2C[C@](C)(N)[C@H](O)[C@H](C)O2)Oc2ccc(cc2Cl)[C@H]1O [vancomycin] | 1 | 1 | 1 | 1 | 1 | 1 | 6.25 | 1 | 1 | 1 | 1 | 1 | 1 | 1 | 0 | 1 | 1 | – | – | – | MIC ([1]; Escherichia coli, Table 13B, non-porinated, technical duplicate, read-out: Minimum Inhibitory Concentration, EKO-35 araC::acrBD408A): 200 µg/mL; MIC ([2]; Escherichia coli, Table 13A, non-porinated, technical duplicate, read-out: Minimum Inhibitory Concentration, EKO-35 araC::acrEF): 200 µg/mL; MIC ([3]; Escherichia coli, Table 13B, non-porinated, technical duplicate, read-out: Minimum Inhibitory Concentration, EKO-35 araC::emrAB): 200 µg/mL; MIC ([4]; Escherichia coli, Table 13B, non-porinated, technical duplicate, read-out: Minimum Inhibitory Concentration, EKO-35 araC::emrKY): 200 µg/mL; MIC ([5]; Escherichia coli, Table 13B, non-porinated, technical duplicate, read-out: Minimum Inhibitory Concentration, EKO-35 araC::macAB): 200 µg/mL; MIC ([6]; Escherichia coli, Table 13A, non-porinated, technical duplicate, read-out: Minimum Inhibitory Concentration, EKO-35 araC::mdtEF): 200 µg/mL; MIC ([7]; Table 10, with pore, read-out: Minimum inhibitory concentration (MIC), Pore K-12): 3.12 µg/mL; MIC ([7]; Table 14A, porinated, read-out: Minimum inhibitory concentration, K-12 (WT)-Pore): 3.12 µg/mL; MIC ([8]; Escherichia coli, 18 h, read-out: Minimum inhibitory concentration, ΔtolC-Pore): 6.25 µg/mL; MIC ([10]; Escherichia coli, EKO-35 araC::acrBD408A Pore, technical duplicate, read-out: Minimum inhibitory concentration): 6.25 µg/mL; MIC ([15]; Escherichia coli, EKO-35 araC::macAB Pore, technical duplicate, read-out: Minimum inhibitory concentration): 6.25 µg/mL; MIC ([16]; Escherichia coli, EKO-35 araC::mdtBC Pore, technical duplicate, read-out: Minimum inhibitory concentration): 1.56 µg/mL; MIC ([17]; Escherichia coli, Table 14A, porinated, technical duplicate, read-out: Minimum inhibitory concentration, EKO-35 araC::mdtEF Pore): 6.25 µg/mL; MIC ([18]; Escherichia coli, EKO-35 araC::mexCD Pore, technical duplicate, read-out: Minimum inhibitory concentration): 6.25 µg/mL
O=[N+]([O-])c1ccc2c(c1)C(=NO)c1cc([N+](=O)[O-])ccc1-2 [compound 11] | 1 | 4096 | 512 | 1 | 1 | 128 | 0.156 | 1024 | 1 | 4 | – | 16 | 1 | 1 | 1 | 64 | 8 | 0.078 | 320 | 40 | Minimum Inhibitory Concentration, EKO-35 araC::emrKY [4, 19]: 0.078 µg/mL; Minimum Inhibitory Concentration, EKO-35 araC::macAB [5, 19]: 0.078 µg/mL; Minimum Inhibitory Concentration, EKO-35 araC::mdtEF [6, 20]: 10 µg/mL; Minimum inhibitory concentration (MIC), Pore K-12 ([7]; Table 10, with pore): 80 µg/mL; Minimum inhibitory concentration, K-12 (WT)-Pore ([7]; Table 14A, porinated): 80 µg/mL; Minimum inhibitory concentration, ΔtolC-Pore [8]: 0.156 µg/mL; Minimum inhibitory concentration, EKO-35 araC::acrB Pore [9]: 80 µg/mL; Minimum inhibitory concentration [10, 21]: 0.078 µg/mL; Minimum inhibitory concentration, EKO-35 araC::acrD Pore [11]: 0.313 µg/mL; Minimum inhibitory concentration, EKO-35 araC::acrEF Pore [12]: 80 µg/mL; Minimum inhibitory concentration [13]: 1.25 µg/mL; Minimum inhibitory concentration [14]: 0.078 µg/mL; Minimum inhibitory concentration [15, 22]: 0.078 µg/mL; Minimum inhibitory concentration [16, 23]: 0.078 µg/mL; Minimum inhibitory concentration, EKO-35 araC::mdtEF Pore [17, 24]: 5 µg/mL; Minimum inhibitory concentration [18, 25]: 0.625 µg/mL
N#CC(C#N)=NNc1ccc(-n2ccc(C(F)(F)F)n2)cc1 [compound 8] | 1 | 1 | 1 | 1 | 1 | 1 | 1.25 | 2 | 1 | 1 | 1 | 1 | 1 | 1 | 1 | 1 | 1 | 320 | 320 | 320 | Minimum Inhibitory Concentration, EKO-35 araC::emrKY [4, 19]: 320 µg/mL; Minimum Inhibitory Concentration, EKO-35 araC::macAB [5, 19]: 320 µg/mL; Minimum Inhibitory Concentration, EKO-35 araC::mdtEF [6, 20]: 320 µg/mL; Minimum inhibitory concentration (MIC), Pore K-12 ([7]; Table 10, with pore): 160 µg/mL; Minimum inhibitory concentration, K-12 (WT)-Pore ([7]; Table 14A, porinated): 160 µg/mL; Minimum inhibitory concentration, ΔtolC-Pore [8]: 1.25 µg/mL; Minimum inhibitory concentration, EKO-35 araC::acrB Pore [9]: 160 µg/mL; Minimum inhibitory concentration [10, 21]: 80 µg/mL; Minimum inhibitory concentration, EKO-35 araC::acrD Pore [11]: 40 µg/mL; Minimum inhibitory concentration, EKO-35 araC::acrEF Pore [12]: 40 µg/mL; Minimum inhibitory concentration [13]: 40 µg/mL; Minimum inhibitory concentration [14]: 80 µg/mL; Minimum inhibitory concentration [15, 22]: 80 µg/mL; Minimum inhibitory concentration [16, 23]: 80 µg/mL; Minimum inhibitory concentration, EKO-35 araC::mdtEF Pore [17, 24]: 80 µg/mL; Minimum inhibitory concentration [18, 25]: 80 µg/mL
